Results on 1 molecule are retold here after article PMC12472391, “Borylated Five-Membered Ring Iminosugars: Synthesis, Spectroscopic Analysis, and Biological Evaluation for Glycosidase Inhibition and Anticancer Properties for Application in Boron Neutron Capture Therapy (BNCT)—Part 1” (Pharmaceuticals, 2025).

Data set [1] addresses T1, α-D-glucosidase (from yeast) (Saccharomyces cerevisiae, UniProt P53341).
T1 construct: purchased Sigma-Aldrich Co
As to the kind of experiment: Glycosidase inhibition, Table 6 (Laboratory 1). The class given is biochemical. The text has this: (§1) The enzymes α-D-glucosidase (from yeast), β-D-glucosidases (from almond and bovine liver), α-D-galactosidase (from coffee beans), β-D-galactosidase (from bovine liver), α-D-mannosidase (from Jack bean), β-D-mannosidase (from snail), α-L-rhamnosidase (from Penicillium decumbens), α-L-fucosidase (from bovine kidney), trehalase (from porcine kidney), β-D-glucuronidases (from E. coli and bovine liver), amyloglucosidase (from A. niger), para-nitrophenyl glycosides, and various disaccharides were purchased from Sigma-Aldrich Co. (St. Louis, MO, USA).
(§2) Brush border membranes were prepared from the rat small intestine according to the method of Kessler et al., and were assayed at pH 6.8 for rat intestinal maltase using maltose. For rat intestinal maltase, porcine kidney trehalase, and A. niger amyloglucosidase activities, the reaction mixture contained maltose (25 mM) and the appropriate amount of enzyme, and the incubations were performed for 10–30 min at 37 °C. The reaction was stopped by heating at 100 °C for 3 min. After centrifugation (600× g; 10 min), the resulting reaction mixture was added to the Glucose CII-test Wako (Wako Pure Chemical Ind., Osaka, Japan). The absorbance at 505 nm was measured to determine the amount of the released D-glucose. Other glycosidase activities were determined using an appropriate para-nitrophenyl glycoside as substrate at the optimum pH of each enzyme. The reaction mixture contained the substrate (2 mM) and the appropriate amount of enzyme. The reaction was stopped by the addition of Na2CO3 (400 mM). The released para-nitrophenol was measured spectrometrically at 400 nm. All reactions run in methanol.

Data set [2] has as its system β-D-glucosidase (almond). As to the kind of experiment: Glycosidase inhibition, Table 6 (Laboratory 1). The class given is biochemical. The conditions noted are these: 100 μM.
Excerpt: as §1, §2

For data set [3], the target named is T2, α-D-galactosidase (from coffee beans) (Coffea arabica, UniProt Q42656).
T2 construct: purchased Sigma-Aldrich Co
Put plainly: Glycosidase inhibition, Table 6 (Laboratory 1). The class given is biochemical.
Excerpt: as §1, §2

Data set [4] has as its system β-D-glucuronidase (bovine liver). As to the kind of experiment: Glycosidase inhibition, Table 6 (Laboratory 1). The format is biochemical. The conditions noted are these: 100 μM.
Excerpt: as §1, §2

Data set [5] deals with α-L-rhamnosidase (from Penicillium decumbens). Put plainly: Glycosidase inhibition, Table 6 (Laboratory 1). The conditions noted are these: 100 μM. The class given is biochemical.
Excerpt: as §1, §2

The subject of data set [6] is MCF10A normal breast cells. Put plainly: Cancer screening, MTT growth inhibition. The format is cell-based. The settings on record: Homo sapiens, MCF-10A, 72-h exposure. How it is done:
Two assays were run: the dose screen to ascertain cell growth inhibition in response to 25 µM of drug (on a blue background) and the dose response (GI50) (on a green background). For a discussion of BNCT as a radiotherapeutic modality, a rationalisation is provided here.
All test agents were prepared as stock solutions (20 mM) in dimethyl sulfoxide (DMSO) and stored at −20 °C. Cell lines used in the study included HT29, (colorectal carcinoma); U87, SJ-G2, (glioblastoma); MCF-7, (breast carcinoma); A2780 (ovarian carcinoma); H460 (lung carcinoma); A431 (skin carcinoma); Du145 (prostate carcinoma); BE2-C (neuroblastoma) and MiaPaCa-2 (pancreatic carcinoma); together with the one non-tumour derived normal breast cell line (MCF10A). All cell lines were incubated in a humidified atmosphere 5% CO2 at 37 °C. The cancer cell lines were maintained in Dulbecco’s modified Eagle’s medium (DMEM; Sigma, Australia) supplemented with foetal bovine serum (10%), sodium pyruvate (10 mM), penicillin (100 IUmL^−1), streptomycin (100 µg mL^−1), and L-glutamine (2 mM).
The non-cancer MCF10A cell line was maintained in DMEM/F12 (1:1) cell culture media, 5% heat inactivated horse serum, supplemented with penicillin (50 IUmL^−1), streptomycin (50 µg mL^−1), HEPES (20 mM), L-glutamine (2 mM), epidermal growth factor (20 ng mL^−1), hydrocortisone (500 ng mL^−1), cholera toxin (100 ng mL^−1), and insulin (10 mg mL^−1).
Growth inhibition was determined by plating cells in duplicate in medium (100 µL) at a density of 2500–4000 cells per well in 96-well plates. On day 0 (24 h after plating), when the cells are in logarithmic growth, medium (100 µL) with or without the test agent was added to each well. After a 72-h drug exposure, growth inhibitory effects were evaluated using the MTT (3-(4,5-dimethyltiazol-2-yl)-2,5-diphenyltetrazolium bromide) assay and absorbance read at 540 nm. The percentage growth inhibition was calculated at a fixed concentration of 25 µM, based on the difference between the optical density values on day 0 and those at the end of drug exposure. Each data point is the mean ± the standard error of the mean (SEM) calculated from three replicates, which were performed on separate occasions and separate cell line passages.

The subject of data set [7] is β-D-glucosidase (almond). Put plainly: Glycosidase inhibition, Table 7. The format is biochemical. The conditions noted are these: 1 mg/mL aqueous solution added, 27 °C, run in water. How it is done:
(§3) All enzymes and para-nitrophenyl substrates were purchased from Sigma. Enzymes were assayed at 27 °C in citric acid (0.1M)/disodium hydrogen phosphate (0.2 M) buffers at the optimum pH for the enzyme. The incubation mixture consisted of […] enzyme solution, […] of 1 mg/mL aqueous solution of extract, and […] of the appropriate 5 mM para-nitrophenyl substrate made up in buffer at the optimum pH for the enzyme. The reactions were stopped by the addition of […] 0.4 M glycine (pH 10.4) during the exponential phase of the reaction, which had been determined at the beginning using uninhibited assays in which water replaced the inhibitor. Final absorbances were read at 405 nm using a Versamax microplate reader (Molecular Devices). Assays were carried out in triplicate, and the values given are the means of the three replicates per assay. All reactions run in water.

The target in data set [8] is T3, α-D-glucosidase (yeast) (Saccharomyces cerevisiae, UniProt P53341).
T3 construct: purchased Sigma
Put plainly: Glycosidase inhibition, Table 7. The class given is biochemical. The settings on record: 1 mg/mL aqueous solution added, 27 °C, run in water, read-out: α-D-Glucosidase Yeast, percentage inhibition. On the procedure:
as §3

Data set [9] has as its system β-D-glucuronidase (bovine liver). Put plainly: Glycosidase inhibition, Table 7. The settings on record: 1 mg/mL aqueous solution added, 27 °C, run in water. The format is biochemical. On the procedure: as §3
A short description of data set [10]: Appearance: 1 mL of water added to 1 mg of solid, and mixed. The class given is physicochemical.

SMILES strings stand for the structures.

T2 sequence (Q42656 16-378): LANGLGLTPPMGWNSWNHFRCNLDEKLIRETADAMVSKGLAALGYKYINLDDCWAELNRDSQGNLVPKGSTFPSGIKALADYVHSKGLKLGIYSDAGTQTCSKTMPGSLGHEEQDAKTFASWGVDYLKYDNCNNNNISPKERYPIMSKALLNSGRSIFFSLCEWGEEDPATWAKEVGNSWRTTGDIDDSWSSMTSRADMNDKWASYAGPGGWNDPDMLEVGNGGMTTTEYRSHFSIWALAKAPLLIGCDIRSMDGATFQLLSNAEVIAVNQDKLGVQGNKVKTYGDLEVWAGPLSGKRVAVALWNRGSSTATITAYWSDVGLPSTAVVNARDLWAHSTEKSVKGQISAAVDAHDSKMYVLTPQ
T3 sequence (P53341 whole entry): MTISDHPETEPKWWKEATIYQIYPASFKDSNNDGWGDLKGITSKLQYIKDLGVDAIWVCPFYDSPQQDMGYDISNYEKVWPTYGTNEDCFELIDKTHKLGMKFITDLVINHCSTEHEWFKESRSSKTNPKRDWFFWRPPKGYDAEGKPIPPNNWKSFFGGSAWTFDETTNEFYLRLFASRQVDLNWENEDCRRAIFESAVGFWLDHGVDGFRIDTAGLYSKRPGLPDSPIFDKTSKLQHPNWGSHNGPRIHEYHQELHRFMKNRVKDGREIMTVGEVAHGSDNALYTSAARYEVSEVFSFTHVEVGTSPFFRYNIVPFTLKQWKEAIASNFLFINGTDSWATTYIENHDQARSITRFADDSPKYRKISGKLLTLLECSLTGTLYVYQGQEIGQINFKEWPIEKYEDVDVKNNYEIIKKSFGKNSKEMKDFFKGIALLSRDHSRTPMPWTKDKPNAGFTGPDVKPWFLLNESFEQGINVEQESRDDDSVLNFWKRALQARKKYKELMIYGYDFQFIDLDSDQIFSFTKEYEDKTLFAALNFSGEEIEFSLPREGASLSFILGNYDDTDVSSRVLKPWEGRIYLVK
T1 sequence (P53341 whole entry): as above

With `OC[C@H](O)[C@@H]1[C@H](O)[C@H](O)CN1Cc1ccccc1` [Compound 5, N-Benzyl-1,4-dideoxy-1,4-imino-L-gulitol], the inhibition at 100 µM in data set [1] worked out at 2.9%; in [3], 1.5%. The “β-D-Glucosidase Almond, inhibition % at 100 μM” value in data set [2] was “^c NI ^d (0%)”. The “β-D-Glucuronidase Bovine Liver, inhibition % at 100 μM” value in data set [4] is given as “^c NI ^d (3.7%)”. For the same molecule, the “α-L-Rhamnosidase P. decumbens, inhibition % at 100 μM” value in data set [5] is given as “^c NI ^d (1.5%)”. Moreover, the inhibition at 25 µM in data set [6] (25 µM, read-out: MCF10A Breast (Normal), Percentage (%) Cell Growth Inhibition in response to 25 µM of Drug) was 3%. For the same molecule, the GI50 in [6] (dose response, read-out: MCF10A Breast (Normal), GI50 = Concentration (µM) that inhibits cell growth by 50%) is greater than 50 µM. For the same molecule, the “β-D-Glucosidase Almond, percentage inhibition” value in [7] was found to be 17.1%. Also, in data set [8], the inhibition at 1000 µg/mL (stock) came to 5.5%. The “β-D-Glucuronidase Bovine Liver, percentage inhibition” value in data set [9] was −2.2%. For the same molecule, in data set [10], the Appearance entry is recorded as “In solution”.
